From ChEMBL document CHEMBL1671687, “Enhancement of biofilm formation by subinhibitory concentrations of macrolides in icaADBC-positive and -negative clinical isolates of Staphylococcus epidermidis” (2010)
The source made the active and inactive calls. The calls are words filed in the database; no cut-off is given here.

Columns and labels:
[1] = test system: Staphylococcus epidermidis; test: Antimicrobial activity against Staphylococcus epidermidis SW036 assessed as enhancement of biofilm formation after 18 hrs by microtiter plate assay; assay type: functional
[2] = test system: Staphylococcus epidermidis; test: Upregulation of pyrR gene expression in Staphylococcus epidermidis SW029 at 8 ug/ml after 6 hrs by RT-PCR relative to untreated control; assay type: functional
[3] = test system: Staphylococcus epidermidis; test: Antimicrobial activity against Staphylococcus epidermidis lacking compound-induced biofilms assessed as biofilm formation at 1/4 X MIC relative to untreated control; assay type: functional
[4] = test system: Staphylococcus epidermidis; test: Upregulation of fruA gene expression in Staphylococcus epidermidis SW029 at 8 ug/ml after 6 hrs by RT-PCR relative to untreated control; assay type: functional
[5] = test system: Staphylococcus epidermidis; test: Antimicrobial activity against compound pretreated Staphylococcus epidermidis biofilms; assay type: functional
[6] = test system: Staphylococcus epidermidis; test: Enhancement of biofilm formation Staphylococcus epidermidis SW045 expressing icaA gene at 1/4 X MIC by microtiter plate assay; assay type: functional
[7] = test system: Staphylococcus epidermidis; test: Antimicrobial activity against Staphylococcus epidermidis SW029 expressing icaA gene; assay type: functional
[8] = test system: Staphylococcus epidermidis; test: Upregulation of sigB gene expression in Staphylococcus epidermidis SW036 at 8 ug/ml after 6 hrs by RT-PCR relative to untreated control; assay type: functional
[9] = test system: Staphylococcus epidermidis; test: Enhancement of biofilm formation Staphylococcus epidermidis SW061 expressing icaA gene at 1/4 X MIC by microtiter plate assay; assay type: functional
[10] = test system: Staphylococcus epidermidis; test: Antimicrobial activity against Staphylococcus epidermidis SW029 expressing icaA gene assessed as formation of multilayer biofilms at 48 hrs by SEM; assay type: functional, organism-based
[11] = test system: Staphylococcus epidermidis; test: Enhancement of biofilm formation Staphylococcus epidermidis SW088 at 1/4 X MIC by microtiter plate assay; assay type: functional
[12] = test system: Staphylococcus epidermidis; test: Enhancement of biofilm formation Staphylococcus epidermidis SW126 expressing icaA gene at 1/4 X MIC by microtiter plate assay; assay type: functional
[13] = test system: Staphylococcus epidermidis; test: Enhancement of biofilm formation Staphylococcus epidermidis SW027 expressing icaA gene at 1/4 X MIC by microtiter plate assay; assay type: functional
[14] = test system: Staphylococcus epidermidis; test: Enhancement of biofilm formation Staphylococcus epidermidis SW029 expressing icaA gene at 1/4 X MIC by microtiter plate assay; assay type: functional
[15] = test system: Staphylococcus epidermidis; test: Antimicrobial activity against Staphylococcus epidermidis lacking compound-induced biofilms; assay type: functional
[16] = test system: Staphylococcus epidermidis; test: Enhancement of biofilm formation Staphylococcus epidermidis SW098 expressing icaA gene at 1/4 X MIC by microtiter plate assay; assay type: functional
[17] = test system: Staphylococcus epidermidis; test: Enhancement of biofilm formation Staphylococcus epidermidis SW104 expressing icaA gene at 1/4 X MIC by microtiter plate assay; assay type: functional
[18] = test system: Staphylococcus epidermidis; test: Effect on polysaccharide secretion in Staphylococcus epidermidis SW029 expressing icaA gene at 12 hrs by SEM; assay type: functional, organism-based
[19] = test system: Staphylococcus epidermidis; test: Enhancement of biofilm formation Staphylococcus epidermidis SW015 at 1/4 X MIC by microtiter plate assay; assay type: functional
[20] = test system: Staphylococcus epidermidis; test: Enhancement of biofilm formation Staphylococcus epidermidis SW099 at 1/4 X MIC by microtiter plate assay; assay type: functional
[21] = test system: Staphylococcus epidermidis; test: Enhancement of biofilm formation Staphylococcus epidermidis SW036 at 1/4 X MIC by microtiter plate assay; assay type: functional
[22] = test system: Staphylococcus epidermidis; test: Upregulation of atlE gene expression in Staphylococcus epidermidis SW036 at 8 ug/ml after 6 hrs by RT-PCR relative to untreated control; assay type: functional
[23] = test system: Staphylococcus epidermidis; test: Enhancement of biofilm formation Staphylococcus epidermidis SW120 at 1/4 X MIC by microtiter plate assay; assay type: functional
[24] = test system: Staphylococcus epidermidis; test: Upregulation of icaA gene expression in Staphylococcus epidermidis SW029 at 8 ug/ml after 24 hrs by RT-PCR relative to untreated control; assay type: functional
[25] = test system: Staphylococcus epidermidis; test: Antimicrobial activity against Staphylococcus epidermidis SW029 expressing icaA gene assessed as increased biofilm formation at 6 to 12 hrs by CLSM; assay type: functional, organism-based
[26] = test system: Staphylococcus epidermidis; test: Upregulation of sarA gene expression in Staphylococcus epidermidis SW029 at 8 ug/ml after 24 hrs by RT-PCR relative to untreated control; assay type: functional
[27] = test system: Staphylococcus epidermidis; test: Upregulation of fruA gene expression in Staphylococcus epidermidis SW036 at 8 ug/ml after 6 hrs by RT-PCR relative to untreated control; assay type: functional
[28] = test system: Staphylococcus epidermidis; test: Enhancement of biofilm formation Staphylococcus epidermidis SW115 at 1/4 X MIC by microtiter plate assay; assay type: functional
[29] = test system: Staphylococcus epidermidis; test: Antimicrobial activity against Staphylococcus epidermidis SW036; assay type: functional
[30] = test system: Staphylococcus epidermidis; test: Upregulation of icaA gene expression in Staphylococcus epidermidis SW029 at 8 ug/ml after 6 hrs by RT-PCR relative to untreated control; assay type: functional
[31] = test system: Staphylococcus epidermidis; test: Antimicrobial activity against Staphylococcus epidermidis SW036 at 1/1024 X MIC; assay type: functional, organism-based
[32] = test system: Staphylococcus epidermidis; test: Upregulation of atlE gene expression in Staphylococcus epidermidis SW029 at 8 ug/ml after 24 hrs by RT-PCR relative to untreated control; assay type: functional
[33] = test system: Staphylococcus epidermidis; test: Enhancement of biofilm formation Staphylococcus epidermidis SW070 at 1/4 X MIC by microtiter plate assay; assay type: functional
[34] = test system: Staphylococcus epidermidis; test: Downregulation of sigB gene expression in Staphylococcus epidermidis SW029 at 8 ug/ml after 24 hrs by RT-PCR relative to untreated control; assay type: functional
[35] = test system: Staphylococcus epidermidis; test: Enhancement of biofilm formation Staphylococcus epidermidis SW067 expressing icaA gene at 1/4 X MIC by microtiter plate assay; assay type: functional
[36] = test system: Staphylococcus epidermidis; test: Enhancement of biofilm formation Staphylococcus epidermidis ATCC 35984 expressing icaA gene at 1/4 X MIC by microtiter plate assay; assay type: functional
[37] = test system: Staphylococcus epidermidis; test: Upregulation of sigB gene expression in Staphylococcus epidermidis SW029 at 8 ug/ml after 6 hrs by RT-PCR relative to untreated control; assay type: functional
[38] = test system: Staphylococcus epidermidis; test: Upregulation of sarA gene expression in Staphylococcus epidermidis SW036 at 8 ug/ml after 6 hrs by RT-PCR relative to untreated control; assay type: functional
[39] = test system: Staphylococcus epidermidis; test: Enhancement of biofilm formation Staphylococcus epidermidis SW021 at 1/4 X MIC by microtiter plate assay; assay type: functional
[40] = test system: Staphylococcus epidermidis; test: Enhancement of biofilm formation Staphylococcus epidermidis SW071 at 1/4 X MIC by microtiter plate assay; assay type: functional
[41] = test system: Staphylococcus epidermidis; test: Enhancement of biofilm formation Staphylococcus epidermidis SW082 at 1/4 X MIC by microtiter plate assay; assay type: functional
[42] = test system: Staphylococcus epidermidis; test: Enhancement of biofilm formation Staphylococcus epidermidis SW032 expressing icaA gene at 1/4 X MIC by microtiter plate assay; assay type: functional
[43] = test system: Staphylococcus epidermidis; test: Antimicrobial activity against compound pretreated Staphylococcus epidermidis assessed as biofilm formation at 1/4 X MIC relative to untreated control; assay type: functional
[44] = test system: Staphylococcus epidermidis; test: Upregulation of pyrR gene expression in Staphylococcus epidermidis SW036 at 8 ug/ml after 6 hrs by RT-PCR relative to untreated control; assay type: functional
[45] = test system: Staphylococcus epidermidis; test: Upregulation of sarA gene expression in Staphylococcus epidermidis SW029 at 8 ug/ml after 6 hrs by RT-PCR relative to untreated control; assay type: functional
[46] = test system: Staphylococcus epidermidis; test: Enhancement of biofilm formation Staphylococcus epidermidis SW085 expressing icaA gene at 1/4 X MIC by microtiter plate assay; assay type: functional
[47] = test system: Staphylococcus epidermidis; test: Upregulation of atlE gene expression in Staphylococcus epidermidis SW029 at 8 ug/ml after 6 hrs by RT-PCR relative to untreated control; assay type: functional
[48] = test system: Staphylococcus epidermidis; test: Enhancement of biofilm formation Staphylococcus epidermidis SW058 expressing icaA gene at 1/4 X MIC by microtiter plate assay; assay type: functional
[49] = test system: Staphylococcus epidermidis; test: Antimicrobial activity against Staphylococcus epidermidis SW029 expressing icaA gene assessed as enhancement of biofilm formation after 18 hrs by microtiter plate assay; assay type: functional

## CC[C@H]1OC(=O)[C@H](C)[C@@H](O[C@H]2C[C@@](C)(OC)[C@@H](O)[C@H](C)O2)[C@H](C)[C@@H](O[C@@H]2O[C@H](C)C[C@H](N(C)C)[C@H]2O)[C@](C)(O)C[C@@H](C)C(=O)[C@H](C)[C@@H](O)[C@]1(C)O [ERYTHROMYCIN]
[1]
  Activity: 100%
[2]
  fold change (FC): 3.7
[3]
  Ratio: 1.02
[4]
  fold change (FC): 4.5
[5]
  MIC: ≥ 32 µg/mL
[6]
  Activity: 47.2%
[7]
  MIC: > 128 µg/mL
[8]
  fold change (FC): 1.4
[9]
  Activity: 50.8%
[10]
  Activity: inactive
[11]
  Activity: 163.1%
[12]
  Activity: 56.1%
[13]
  Activity: 60.4%
[14]
  Activity: 159.6%
[15]
  MIC: ≥ 16 µg/mL
[16]
  Activity: 93.9%
[17]
  Activity: 63.2%
[18]
  Activity: inactive
[19]
  Activity: 87.8%
[20]
  Activity: 55.7%
[21]
  Activity: 284.3%
[22]
  fold change (FC): 1.8
[23]
  Activity: 69.4%
[24]
  fold change (FC): 2.8
[25]
  Activity: inactive
[26]
  fold change (FC): 6.9
[27]
  fold change (FC): 2.4
[28]
  Activity: 166.8%
[29]
  MIC: > 128 µg/mL
[30]
  fold change (FC): 1.2
[31]
  Activity: Active
[32]
  fold change (FC): 2.4
[33]
  Activity: 172.2%
[34]
  fold change (FC): 0.6
[35]
  Activity: 150.3%
[36]
  Activity: 7%
[37]
  fold change (FC): 2
[38]
  fold change (FC): 1.7
[39]
  Activity: 34.7%
[40]
  Activity: 230.4%
[41]
  Activity: 58.7%
[42]
  Activity: 78.5%
[43]
  Ratio: 2.51
[44]
  fold change (FC): 2.4
[45]
  fold change (FC): 1.7
[46]
  Activity: 297.8%
[47]
  fold change (FC): 6.2
[48]
  Activity: 37.9%
[49]
  Activity: 173%
